Experimental data reported in patent US20100179188A1, “NITROXIDE RADICAL AS TREATMENT FOR NEURODEGENERATION” (Office of Technology Transfer, NIH, priority 2007, published 2010).
“Also recorded” adds a separate entry of the source.

Assays:
IRP1 = assay: Western blot of IRP1 protein in IRP2−/− embryonic fibroblasts; assay type: cell-based, mouse; settings: 0.3 and 1.0 mM, 16 h
Procedure: Cells: Embryonic fibroblasts of 13-day old embryos were isolated from wild type, IRP1−/− mice and IRP2−/− mice as described in LaVaute et al. supra. Myc-tagged HEK 293 Tet-on cell line, in which IRP2 expression was inducible, was prepared and cultured as described Bourdon et al., Blood Cells Mol Dis, 31, 247-255 (2003). Erythroblasts were harvested from bone marrow and purified as described in Cooperman et al., Blood, 106, 1084-1091 (2005).
Western blotting and antibodies: Protein analysis was carried out as described in LaVaute et al., supra. Equal amounts of protein (20-40 μg/lane) were separated on 13% SDSPAGE and transferred to nitrocellulose membranes. The membrane was blocked with 5% non-fat milk, 0.1% Triton X-100 in PBS and probed at RT in the same blocking buffer. IRP1 antibody was prepared against purified hIRP1 and used at 1:5000 dilution. L-ferritin antibody was raised in rabbit from L-ferritin protein purified from mouse livers. […]
To study the effect of Tempo1 on the IRE-binding activity of IRP1, IRP2−/− embryonic fibroblasts that were maintained in culture supplemented with 0, 0.3 and 1.0 mM Tempo1, with or without ferric ammonium citrate (FAC), for 16 h. […] Quantification was performed with the IQMac (IRP1 activity) or NIH Image (protein levels) program. Error bars represent the standard deviation calculated from the results of two different sets of experiments.

purified holo-IRP1 [1] = biological target: T1, purified holo-IRP1 (Homo sapiens, UniProt P21399); assay: IRE gel shift assay on purified holo-IRP1; assay type: biochemical
T1 sequence (P21399 1-889): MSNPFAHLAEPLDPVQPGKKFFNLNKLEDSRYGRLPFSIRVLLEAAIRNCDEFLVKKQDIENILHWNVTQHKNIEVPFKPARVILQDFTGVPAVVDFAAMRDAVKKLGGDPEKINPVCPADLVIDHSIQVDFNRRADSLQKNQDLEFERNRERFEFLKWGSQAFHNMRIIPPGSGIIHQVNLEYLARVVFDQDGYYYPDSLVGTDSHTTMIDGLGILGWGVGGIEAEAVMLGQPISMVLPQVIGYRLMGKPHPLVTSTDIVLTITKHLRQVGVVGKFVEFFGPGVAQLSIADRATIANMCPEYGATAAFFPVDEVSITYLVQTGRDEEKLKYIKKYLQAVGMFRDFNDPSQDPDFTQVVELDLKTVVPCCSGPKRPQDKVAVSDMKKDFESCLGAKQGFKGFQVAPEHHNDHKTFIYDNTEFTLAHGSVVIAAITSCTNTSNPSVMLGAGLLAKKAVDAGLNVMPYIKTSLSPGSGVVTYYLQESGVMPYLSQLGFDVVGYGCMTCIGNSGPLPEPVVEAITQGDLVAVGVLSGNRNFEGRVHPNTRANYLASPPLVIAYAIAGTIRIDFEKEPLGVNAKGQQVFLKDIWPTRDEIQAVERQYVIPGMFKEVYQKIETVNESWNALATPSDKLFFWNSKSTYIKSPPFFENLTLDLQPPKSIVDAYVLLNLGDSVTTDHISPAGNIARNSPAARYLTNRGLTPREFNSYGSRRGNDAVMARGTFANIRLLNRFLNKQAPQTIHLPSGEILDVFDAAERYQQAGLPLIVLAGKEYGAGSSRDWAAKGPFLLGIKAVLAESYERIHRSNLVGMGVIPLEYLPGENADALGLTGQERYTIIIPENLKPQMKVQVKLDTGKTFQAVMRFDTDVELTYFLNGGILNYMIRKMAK
Procedure: RNA mobility shift assays: Gel retardation assays were performed as described in Meyron-Holtz et al., EMBO J, 23, 386-395 (2004). Tissue lysates were prepared in an anaerobic chamber as described above in oxygen-depleted lysis buffer containing 10 mM HEPES (pH 7.2), 3 mM MgC12, 40 mM KCl, 5% glycerol, 0.2% Nonidet P-40, 5 mM DTT, 1 mM AEBSF, 10 μg/ml. Leupeptin and complete TM EDTA free protease inhibitor cocktail (Roche Applied Science, Indiana). Lysate (x μl) containing 10 μg of total protein was added to (12.5−x) μl of bandshift buffer containing 25 mM Tris-HCl (pH 7.5) and 40 mM KCl. The samples were incubated for 5 min at room temperature (RT) with 12.5 μl of a reaction cocktail containing 20% glycerol, 0.2 U/μl Super RNAsine (Ambion, Tex.), 0.6 μg/μl yeast t-RNA, 5 mM DTT and 20 nM 32P-labelled IRE from human ferritin H-chain gene in 25 mM Tris-HCl (pH 7.5) and 40 mM KCl. A measure of 20 μl of this reaction mixture was loaded into a 10% acrylamide/TBE gel, which was run at 200 V for 2.15 h, and then the gel was fixed, dried and exposed for autoradiography.
Soum et al., J. Biol Inorg Chem, 8, 226-232 (2003). IRE-binding activity of purified holo-IRP1 (11 ng) was assessed by an IRE gel shift assay. Purified protein (11 ng) was incubated with 0.1% β-mercaptoethanol for 2 h at room temperature without (lane 1) or with (lane 2) 1 mM tempol. Sample in lane 3 was treated with 2% β-mercaptoethanol for 2 min after 2 h incubation without tempol.

purified holo-IRP1 [2] = biological target: T1, purified holo-IRP1; assay: Aconitase activity of purified holo-IRP1, coupled solution assay; assay type: biochemical; settings: purified protein, room air up to 2 h or 3 h at 37° C., vs control samples
IRP2−/− mice = assay: Hematocrit (anemia) of IRP2−/− mice on Tempo1 diet; assay type: in vivo
Procedure: Diet: The mice were weaned 3-4 weeks after their birth. Immediately after weaning, mice were maintained on either a Tempo1-supplemented or control diet. In the Tempo1-supplemented diet, powdered Tempo1 was uniformly mixed with bacon-flavored mouse chow by a “cold press” technique (Bio-Serv, Frenchtown, N.J., USA) at a concentration of 10 mg/g of food. Bacon-flavored chow without Tempo1 was used as the control diet.

`CC1(C)CC(O)CC(C)(C)N1[O]` [Tempo1] was tested, and the IRP1 levels (IRP1) was “unchanged”, the “recruitment of IRE-binding activity” value (purified holo-IRP1 [1]; holo-IRP1, 1.0 mM, 3 h at 37° C., FIG. 6b) was “almost completely recruited” and the “IRE binding activity vs IRP1 exposed to room air alone” value (purified holo-IRP1 [1]; purified holo-IRP1, 2 h at room temperature and 3 h at 37° C.) was “much higher”. For the same molecule, the “IRE binding activity of IRP1” value (purified holo-IRP1 [1]; purified holo-IRP1 treated with Tempo1) was “increased”, the “loss of aconitase activity” value (purified holo-IRP1 [2]) was “comparable losses; also recorded: did not enhance” and the hematocrit (IRP2−/− mice; IRP2−/− mice after 8 months of Tempo1 diet (untreated IRP2−/− 46±5, WT 52±2)) was 46±4. For the same molecule, the “mild anemia of IRP2−/− mice” value (IRP2−/− mice; IRP2−/− mice treated with Tempo1) was “did not improve”.
